± gives the uncertainty stated by the source.
Assay: xn = mol fraction of the nth substance listed

SMILES: CCCC[P+](CC)(CCCC)CCCC.F[B-](F)(F)F + CC#N
- viscosity (293.15 K, 100 kPa, x1 = 0.004068): 0.373 ± 0.023 mPa·s
- viscosity (293.15 K, 100 kPa, x1 = 0.008179): 0.392 ± 0.024 mPa·s
- viscosity (293.15 K, 100 kPa, x1 = 0.01204): 0.411 ± 0.025 mPa·s
- viscosity (293.15 K, 100 kPa, x1 = 0.01601): 0.431 ± 0.026 mPa·s
- viscosity (293.15 K, 100 kPa, x1 = 0.01998): 0.452 ± 0.027 mPa·s
- viscosity (293.15 K, 100 kPa, x1 = 0.02358): 0.473 ± 0.029 mPa·s
- viscosity (293.15 K, 100 kPa, x1 = 0.02792): 0.497 ± 0.03 mPa·s
- viscosity (293.15 K, 100 kPa, x1 = 0.03171): 0.521 ± 0.032 mPa·s
- viscosity (293.15 K, 100 kPa, x1 = 0.03517): 0.542 ± 0.033 mPa·s
- viscosity (293.15 K, 100 kPa, x1 = 0.03939): 0.57 ± 0.035 mPa·s
- viscosity (298.15 K, 100 kPa, x1 = 0.004068): 0.355 ± 0.021 mPa·s
- viscosity (298.15 K, 100 kPa, x1 = 0.008179): 0.374 ± 0.023 mPa·s
- viscosity (298.15 K, 100 kPa, x1 = 0.01204): 0.391 ± 0.024 mPa·s
- viscosity (298.15 K, 100 kPa, x1 = 0.01601): 0.41 ± 0.025 mPa·s
- viscosity (298.15 K, 100 kPa, x1 = 0.01998): 0.429 ± 0.026 mPa·s
- viscosity (298.15 K, 100 kPa, x1 = 0.02358): 0.448 ± 0.027 mPa·s
- viscosity (298.15 K, 100 kPa, x1 = 0.02792): 0.471 ± 0.029 mPa·s
- viscosity (298.15 K, 100 kPa, x1 = 0.03171): 0.494 ± 0.03 mPa·s
- viscosity (298.15 K, 100 kPa, x1 = 0.03517): 0.513 ± 0.031 mPa·s
- viscosity (298.15 K, 100 kPa, x1 = 0.03939): 0.539 ± 0.033 mPa·s
- viscosity (303.15 K, 100 kPa, x1 = 0.004068): 0.34 ± 0.021 mPa·s
- viscosity (303.15 K, 100 kPa, x1 = 0.008179): 0.357 ± 0.022 mPa·s
- viscosity (303.15 K, 100 kPa, x1 = 0.01204): 0.373 ± 0.023 mPa·s
- viscosity (303.15 K, 100 kPa, x1 = 0.01601): 0.391 ± 0.024 mPa·s
- viscosity (303.15 K, 100 kPa, x1 = 0.01998): 0.409 ± 0.025 mPa·s
- viscosity (303.15 K, 100 kPa, x1 = 0.02358): 0.426 ± 0.026 mPa·s
- viscosity (303.15 K, 100 kPa, x1 = 0.02792): 0.448 ± 0.027 mPa·s
- viscosity (303.15 K, 100 kPa, x1 = 0.03171): 0.469 ± 0.028 mPa·s
- viscosity (303.15 K, 100 kPa, x1 = 0.03517): 0.486 ± 0.029 mPa·s
- viscosity (303.15 K, 100 kPa, x1 = 0.03939): 0.511 ± 0.031 mPa·s
- viscosity (308.15 K, 100 kPa, x1 = 0.004068): 0.326 ± 0.02 mPa·s
- viscosity (308.15 K, 100 kPa, x1 = 0.008179): 0.342 ± 0.021 mPa·s
- viscosity (308.15 K, 100 kPa, x1 = 0.01204): 0.356 ± 0.022 mPa·s
- viscosity (308.15 K, 100 kPa, x1 = 0.01601): 0.372 ± 0.023 mPa·s
- viscosity (308.15 K, 100 kPa, x1 = 0.01998): 0.389 ± 0.024 mPa·s
- viscosity (308.15 K, 100 kPa, x1 = 0.02358): 0.406 ± 0.025 mPa·s
- viscosity (308.15 K, 100 kPa, x1 = 0.02792): 0.426 ± 0.026 mPa·s
- viscosity (308.15 K, 100 kPa, x1 = 0.03171): 0.446 ± 0.027 mPa·s
- viscosity (308.15 K, 100 kPa, x1 = 0.03517): 0.462 ± 0.028 mPa·s
- viscosity (308.15 K, 100 kPa, x1 = 0.03939): 0.486 ± 0.03 mPa·s
- viscosity (313.15 K, 100 kPa, x1 = 0.004068): 0.313 ± 0.019 mPa·s
- viscosity (313.15 K, 100 kPa, x1 = 0.008179): 0.327 ± 0.02 mPa·s
- viscosity (313.15 K, 100 kPa, x1 = 0.01204): 0.341 ± 0.021 mPa·s
- viscosity (313.15 K, 100 kPa, x1 = 0.01601): 0.356 ± 0.022 mPa·s
- viscosity (313.15 K, 100 kPa, x1 = 0.01998): 0.372 ± 0.023 mPa·s
- viscosity (313.15 K, 100 kPa, x1 = 0.02358): 0.389 ± 0.024 mPa·s
- viscosity (313.15 K, 100 kPa, x1 = 0.02792): 0.406 ± 0.025 mPa·s
- viscosity (313.15 K, 100 kPa, x1 = 0.03171): 0.424 ± 0.026 mPa·s
- viscosity (313.15 K, 100 kPa, x1 = 0.03517): 0.44 ± 0.027 mPa·s
- viscosity (313.15 K, 100 kPa, x1 = 0.03939): 0.463 ± 0.028 mPa·s
- viscosity (318.15 K, 100 kPa, x1 = 0.004068): 0.3 ± 0.018 mPa·s
- viscosity (318.15 K, 100 kPa, x1 = 0.008179): 0.313 ± 0.019 mPa·s
- viscosity (318.15 K, 100 kPa, x1 = 0.01204): 0.326 ± 0.02 mPa·s
- viscosity (318.15 K, 100 kPa, x1 = 0.01601): 0.341 ± 0.021 mPa·s
- viscosity (318.15 K, 100 kPa, x1 = 0.01998): 0.356 ± 0.022 mPa·s
- viscosity (318.15 K, 100 kPa, x1 = 0.02358): 0.37 ± 0.022 mPa·s
- viscosity (318.15 K, 100 kPa, x1 = 0.02792): 0.387 ± 0.023 mPa·s
- viscosity (318.15 K, 100 kPa, x1 = 0.03171): 0.404 ± 0.024 mPa·s
- viscosity (318.15 K, 100 kPa, x1 = 0.03517): 0.419 ± 0.025 mPa·s
- viscosity (318.15 K, 100 kPa, x1 = 0.03939): 0.44 ± 0.027 mPa·s

SMILES: CCCCCCCCn1cc[n+](C)c1.O=[N+]([O-])[O-] + CCCCCCCCn1cc[n+](C)c1.[Cl-]
- viscosity (293 K, 101 kPa, x2 = 0.3615): 8500 ± 2500 mPa·s
